# Tests used:
# Type in all cases: in vivo
# [1] = tested on: ryegrass, Italian (Italian ryegrass, Lolium multiflorum); experiment: Test A greenhouse herbicide test, pre- and postemergence
# How it was run: (§1)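 Visual injury ratings, 0 (no effect) to 100 (complete control), versus untreated plants after roughly 10 d in a greenhouse. Compounds, formulated in a surfactant-containing non-phytotoxic solvent, were sprayed on loam–sand soil after sowing (pre) or on one- to two-leaf plants 2–10 cm tall (post).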
# [2] = tested on: pigweed (Amaranthus retroflexus); experiment: as above
# How it was run: as §1
# [3] = tested on: foxtail, giant (giant foxtail, Setaria faberii); experiment: as above
# How it was run: as §1
# [4] = tested on: ragweed (common ragweed, Ambrosia elatior); experiment: as above
# How it was run: as §1
# [5] = tested on: kochia (Kochia scoparia); experiment: as above
# How it was run: as §1
# [6] = tested on: wheat (Triticum aestivum); experiment: as above; conditions: Postemergence
# How it was run: as §1
# [7] = tested on: corn (Zea mays); experiment: as above; conditions: Postemergence
# How it was run: as §1
# [8] = tested on: oilseed rape (Brassica napus); experiment: Test C greenhouse herbicide test, pre- and postemergence
# How it was run: (§2)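 Greenhouse pots; pre-em on seeded loam:sand blend, post-em on 2–18 cm plants (1–4 leaf) in sphagnum peat/vermiculite medium. Formulation: non-phytotoxic solvent + surfactant. Read-out: visual % control (0–100) vs controls at 13–15 d.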
# [9] = tested on: galium (catchweed bedstraw, Galium aparine); experiment: as above
# How it was run: as §2
# [10] = tested on: nutsedge, yellow (yellow nutsedge, Cyperus esculentus); experiment: as above
# How it was run: as §2
# [11] = tested on: velvetleaf (Abutilon theophrasti); experiment: as above
# How it was run: as §2
# [12] = Postemergence, 125 g ai/ha, 0 to 100 scale, 0 no effect, 100 complete control
# [13] = Postemergence, 500 g ai/ha, visual rating after approx. 10 d, 0 to 100 scale (0 no effect, 100 complete control)
# [14] = Preemergence, 125 g ai/ha, visual injury rating, 0 to 100 scale (0 no effect, 100 complete control), approx. 10 d
# [15] = Preemergence, 500 g ai/ha, 0 to 100 scale where 0 is no effect and 100 is complete control
# [16] = 125 g ai/ha, 0 to 100 scale, 0 no effect, 100 complete control
# [17] = 500 g ai/ha, visual rating after approx. 10 d, 0 to 100 scale (0 no effect, 100 complete control)
# [18] = Postemergence, 31 g ai/ha, scale 0 to 100 (0 no effect, 100 complete control)
# [19] = Postemergence, 62 g ai/ha, 0 to 100 scale (0 no effect, 100 complete control)
# [20] = Postemergence, 250 g ai/ha, scale 0 to 100, 0 no effect, 100 complete control, 13 to 15 d
# [21] = Preemergence, 31 g ai/ha, scale 0 to 100, 0 is no effect, 100 is complete control
# [22] = Preemergence, 62 g ai/ha, scale 0 to 100, 0 is no effect, 100 is complete control
# [23] = Preemergence, 125 g ai/ha, scale 0 to 100, 0 is no effect, 100 is complete control
# [24] = Preemergence, 250 g ai/ha, scale 0 to 100 (0 no effect, 100 complete control)
# [25] = postemergence, 125 g ai/ha, scale 0 to 100, 0 no effect, 100 complete control
# [26] = Postemergence, 250 g ai/ha, scale 0 to 100, 0 is no effect, 100 is complete control
smiles,measurement,setting,value
Cc1cc(C)c2ccccc2c1-c1c(OS(C)(=O)=O)c(C)nn(C)c1=O [Compound 154],"Plant response rating, Ryegrass, Italian",[1]; [12],90
same,"Plant response rating, Ryegrass, Italian",[1]; [13],100
same,"Plant response rating, Ryegrass, Italian",[1]; [14],90
same,"Plant response rating, Ryegrass, Italian",[1]; [15],100
same,"Plant response rating, Pigweed",[2]; [12],90
same,"Plant response rating, Pigweed",[2]; [13],90
same,"Plant response rating, Pigweed",[2]; [14],100
same,"Plant response rating, Pigweed",[2]; [15],100
same,"Plant response rating, Foxtail, Giant",[3]; [12],90
same,"Plant response rating, Foxtail, Giant",[3]; [13],90
same,"Plant response rating, Foxtail, Giant",[3]; [14],90
same,"Plant response rating, Foxtail, Giant",[3]; [15],100
same,"Plant response rating, Ragweed",[4]; [12],80
same,"Plant response rating, Ragweed",[4]; [13],80
same,"Plant response rating, Ragweed",[4]; [14],80
same,"Plant response rating, Ragweed",[4]; [15],90
same,"Plant response rating, Kochia",[5]; [12],20
same,"Plant response rating, Kochia",[5]; [13],50
same,"Plant response rating, Kochia",[5]; [14],0
same,"Plant response rating, Kochia",[5]; [15],20
same,"Plant response rating, Wheat",[6]; [16],0
same,"Plant response rating, Wheat",[6]; [17],20
same,"Plant response rating, Corn",[7]; [16],0
same,"Plant response rating, Corn",[7]; [17],40
same,"Plant response rating, Oilseed Rape",[8]; [18],75
same,Oilseed Rape plant response rating,[8]; [19],90
same,"Plant response rating, Oilseed Rape",[8]; [20],95
same,"Plant response rating, Oilseed Rape",[8]; [21],80
same,"Plant response rating, Oilseed Rape",[8]; [22],85
same,"Plant response rating, Oilseed Rape",[8]; [23],98
same,Oilseed Rape plant response rating,[8]; [24],98
same,Oilseed Rape plant response rating,[8]; [25],98
same,"Plant response rating, Galium",[9]; [18],95
same,Galium plant response rating,[9]; [19],95
same,"Plant response rating, Galium",[9]; [20],95
same,"Plant response rating, Galium",[9]; [21],98
same,"Plant response rating, Galium",[9]; [22],95
same,"Plant response rating, Galium",[9]; [23],98
same,Galium plant response rating,[9]; [24],100
same,Galium plant response rating,[9]; [25],95
same,"Plant response rating, Nutsedge, Yellow",[10]; [18],70
same,"Nutsedge, Yellow plant response rating",[10]; [19],60
same,"Plant response rating, Nutsedge, Yellow",[10]; [20],80
same,"Plant response rating, Nutsedge, Yellow",[10]; [21],0
same,"Plant response rating, Nutsedge, Yellow",[10]; [22],20
same,"Plant response rating, Nutsedge, Yellow",[10]; [23],70
same,"Nutsedge, Yellow plant response rating",[10]; [24],85
same,"Nutsedge, Yellow plant response rating",[10]; [25],85
same,"Plant response rating, Velvetleaf",[11]; [18],70
same,Velvetleaf plant response rating,[11]; [19],85
same,"Plant response rating, Velvetleaf",[11]; [20],90
same,"Plant response rating, Velvetleaf",[11]; [21],40
same,"Plant response rating, Velvetleaf",[11]; [22],60
same,"Plant response rating, Velvetleaf",[11]; [23],85
same,Velvetleaf plant response rating,[11]; [24],85
same,Velvetleaf plant response rating,[11]; [25],85
COC(=O)Oc1c(C)nn(C)c(=O)c1-c1c([N+](=O)[O-])ccc2ccccc12 [Compound 162],"Plant response rating, Ryegrass, Italian",[1]; [12],60
same,"Plant response rating, Ryegrass, Italian",[1]; [13],90
same,"Plant response rating, Ryegrass, Italian",[1]; [14],40
same,"Plant response rating, Ryegrass, Italian",[1]; [15],100
same,"Plant response rating, Pigweed",[2]; [12],80
same,"Plant response rating, Pigweed",[2]; [13],90
same,"Plant response rating, Pigweed",[2]; [14],80
same,"Plant response rating, Pigweed",[2]; [15],90
same,"Plant response rating, Foxtail, Giant",[3]; [12],20
same,"Plant response rating, Foxtail, Giant",[3]; [13],40
same,"Plant response rating, Foxtail, Giant",[3]; [14],10
same,"Plant response rating, Foxtail, Giant",[3]; [15],40
same,"Plant response rating, Ragweed",[4]; [12],80
same,"Plant response rating, Ragweed",[4]; [13],100
same,"Plant response rating, Ragweed",[4]; [14],50
same,"Plant response rating, Ragweed",[4]; [15],90
same,"Plant response rating, Kochia",[5]; [12],70
same,"Plant response rating, Kochia",[5]; [13],90
same,"Plant response rating, Kochia",[5]; [14],60
same,"Plant response rating, Kochia",[5]; [15],90
same,"Plant response rating, Wheat",[6]; [16],0
same,"Plant response rating, Wheat",[6]; [17],20
same,"Plant response rating, Corn",[7]; [16],20
same,"Plant response rating, Corn",[7]; [17],30
same,"Plant response rating, Oilseed Rape",[8]; [18],0
same,Oilseed Rape plant response rating,[8]; [19],0
same,"Plant response rating, Oilseed Rape",[8]; [20],0
same,Oilseed Rape plant response rating,[8]; [25],0
same,"Plant response rating, Galium",[9]; [18],90
same,Galium plant response rating,[9]; [19],90
same,"Plant response rating, Galium",[9]; [20],98
same,Galium plant response rating,[9]; [25],95
same,"Plant response rating, Nutsedge, Yellow",[10]; [18],20
same,"Nutsedge, Yellow plant response rating",[10]; [19],25
same,"Plant response rating, Nutsedge, Yellow",[10]; [20],30
same,"Nutsedge, Yellow plant response rating",[10]; [25],30
same,"Plant response rating, Velvetleaf",[11]; [18],5
same,Velvetleaf plant response rating,[11]; [19],15
same,"Plant response rating, Velvetleaf",[11]; [20],70
same,Velvetleaf plant response rating,[11]; [25],30
CC(=O)Oc1c(C)nn(C)c(=O)c1-c1c([N+](=O)[O-])ccc2ccccc12 [Compound 164],"Plant response rating, Ryegrass, Italian",[1]; [12],70
same,"Plant response rating, Ryegrass, Italian",[1]; [13],90
same,"Plant response rating, Ryegrass, Italian",[1]; [14],60
same,"Plant response rating, Ryegrass, Italian",[1]; [15],100
same,"Plant response rating, Pigweed",[2]; [12],80
same,"Plant response rating, Pigweed",[2]; [13],80
same,"Plant response rating, Pigweed",[2]; [14],80
same,"Plant response rating, Pigweed",[2]; [15],100
same,"Plant response rating, Foxtail, Giant",[3]; [12],20
same,"Plant response rating, Foxtail, Giant",[3]; [13],30
same,"Plant response rating, Foxtail, Giant",[3]; [14],10
same,"Plant response rating, Foxtail, Giant",[3]; [15],40
same,"Plant response rating, Ragweed",[4]; [12],70
same,"Plant response rating, Ragweed",[4]; [13],100
same,"Plant response rating, Ragweed",[4]; [14],50
same,"Plant response rating, Ragweed",[4]; [15],90
same,"Plant response rating, Kochia",[5]; [12],60
same,"Plant response rating, Kochia",[5]; [13],90
same,"Plant response rating, Kochia",[5]; [14],60
same,"Plant response rating, Kochia",[5]; [15],100
same,"Plant response rating, Wheat",[6]; [16],0
same,"Plant response rating, Wheat",[6]; [17],0
same,"Plant response rating, Corn",[7]; [16],0
same,"Plant response rating, Corn",[7]; [17],20
same,"Plant response rating, Oilseed Rape",[8]; [18],0
same,Oilseed Rape plant response rating,[8]; [19],0
same,"Plant response rating, Oilseed Rape",[8]; [26],0
same,Oilseed Rape plant response rating,[8]; [25],0
same,"Plant response rating, Galium",[9]; [18],90
same,Galium plant response rating,[9]; [19],95
same,"Plant response rating, Galium",[9]; [26],100
same,Galium plant response rating,[9]; [25],100
same,"Plant response rating, Nutsedge, Yellow",[10]; [18],20
same,"Nutsedge, Yellow plant response rating",[10]; [19],20
same,"Plant response rating, Nutsedge, Yellow",[10]; [26],40
same,"Nutsedge, Yellow plant response rating",[10]; [25],25
same,"Plant response rating, Velvetleaf",[11]; [18],25
same,Velvetleaf plant response rating,[11]; [19],60
same,"Plant response rating, Velvetleaf",[11]; [26],70
same,Velvetleaf plant response rating,[11]; [25],25

# Source: patent US10597388B2, “Pyridazinone herbicides” (FMC CORPORATION, priority 2014, dated 2020)
